Our source for the TGI and GI50 values is PubChem BioAssay (NCI).

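Protocol summary: plate cells (96-well), add compound at 5 concentrations, incubate 48 h, interpolate endpoints linearly. Here, GI50 denotes the concentration required for 50% inhibition of growth. TGI is the concentration that stops growth completely.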 Where a SMILES comes first, the peptide text is derived from it. The star is where a group is joined. Cbz = O=C(OCc1ccccc1)*; NHNH2 = NN*

Holding throughout (experiment): DTP human tumour cell line panel, 48 h
Test [1] deals with OVCAR-4 ovarian.
Test [2] concerns RPMI-8226 leukemia.
For test [3], the system named is PC-3 prostate.
Test [4] has as its system ACHN renal.
Test [5] deals with UACC-257 melanoma.
The test system of test [6] is OVCAR-8 ovarian.
Test [7] deals with SNB-75 CNS.
Test [8] concerns HCC-2998 colon.

With `CC(=S)N=Cc1c(O)cc(C)oc1=O`, the TGI in test [1], in test [2], in test [3], in test [4], in test [5] and in test [6] was more than 100 µM in each case. Besides, the TGI in test [7] and in test [8] was more than 100 µM throughout.
Consider `N#Cc1c(-c2ccc(F)cc2)nc(N/N=C/c2c[nH]c3ccccc23)nc1N1CCOCC1`, for which the GI50 was 16.1 µM in test [1]; 3.35 µM in test [2]; 3.54 µM in test [3]; 2.24 µM in test [4]; 2.2 µM in test [5]; 7.63 µM in test [6]. Besides, the GI50 in test [7] was 3.45 µM; in test [8] it was 9.91 µM. Also, the TGI in test [1] was 62.8 µM; in test [2], more than 100 µM; in test [3], more than 100 µM; in test [4], 30.7 µM; in test [5], 4.87 µM; in test [6] it was 93.8 µM. Also, the TGI is 38.4 µM in test [7] and more than 100 µM in test [8].
With `c1ccc(/C(=N/Nc2ccccn2)c2ncccn2)cc1`, the TGI in test [1] was more than 100 µM; in test [2] it was more than 62.9 µM; in test [3] it was more than 100 µM; in test [4] it was 13.3 µM; in test [6] it was 3.43 µM; in test [7], 16.2 µM. In test [8], this compound returned a TGI of more than 100 µM.
As for `CC(=O)OC/C=C(/C=C/CNC1CCCCC1)OC(C)=O`, the TGI in test [1] came to 35.7 µM; in test [2], 25.5 µM; in test [3] it was 31.1 µM; in test [4] it was 30.1 µM; in test [5], 29.4 µM; in test [7], 93.6 µM. For the same compound, the TGI in test [8] amounted to 40.3 µM.
In the case of `COc1ccc2cc(NC(=O)N/N=C\c3ccc(Cl)cc3)ccc2c1`, the TGI in test [1], in test [2], in test [3], in test [4], in test [5] and in test [6] was more than 100 µM each time. In addition, the TGI in test [7] and in test [8] was more than 100 µM in each case.
Take `NC1CNC(=O)c2c(Cl)sc(Cl)c21` (centres undefined): the TGI in test [1], in test [2], in test [3], in test [4], in test [5] and in test [6] was more than 100 µM throughout. Further, the TGI in test [7] and in test [8] was more than 100 µM throughout.
On to `CN(C)S(=O)(=O)Nc1nnc(S(N)(=O)=O)s1`, for which the concentration for total growth inhibition (TGI) in test [1], in test [2], in test [3], in test [4], in test [7] and in test [8] was more than 100 µM each time.
Consider `Cc1c2ncccc2cc2oc3ccccc3c(=O)c12`, for which the TGI in test [1], in test [2], in test [3], in test [4], in test [5] and in test [6] was more than 100 µM throughout. The TGI in test [7] and in test [8] was more than 100 µM in each case.
As for `COc1cc(I)c2c3c1OC1C34CCN(C)C(C2)C4=CC(I)C1(OC)OC` (centres undefined), the TGI in test [1] was 55.9 µM; in test [2], 49.7 µM; in test [3], 82.1 µM; in test [4], 98.3 µM; in test [5], 49.4 µM; in test [6] it was 53 µM. The TGI in test [7] is 31.2 µM; in test [8], 28.9 µM.
`C=c1c(OC)c(OC)c(O)c2c1=c1cc([N+](=O)[O-])cc(OC)c1=N2`: the concentration for total growth inhibition (TGI) in test [1], in test [2], in test [3], in test [4], in test [5] and in test [6] was more than 100 µM in each case. Moreover, the TGI in test [7] and in test [8] was more than 100 µM throughout.
Regarding `CC1(C)OCC2OC3([C@H]4OC(C)(C)O[C@@H]4CO)OC(C)(C)OC3C2O1` (some centres undefined), the concentration for total growth inhibition (TGI) in test [1], in test [2], in test [3], in test [4], in test [5] and in test [6] was more than 100 µM in each case. Besides, the total growth inhibition concentration (TGI) in test [7] and in test [8] was more than 100 µM throughout.
For `Nc1ccc(S(=O)(=O)Nc2nc3ccccc3nc2N2CCCCC2)cc1`, the TGI was 87.7 µM in test [1]; more than 100 µM in test [2]; more than 100 µM in test [3]; more than 100 µM in test [4]; more than 100 µM in test [5]; more than 100 µM in test [6]. Further, the TGI in test [7] and in test [8] was more than 100 µM in each case.
Turning to `COc1c(C)c2nc3ccccc3[nH]c2c2c(=O)ccnc12`, the TGI in test [1], in test [2], in test [3], in test [4], in test [5] and in test [6] was more than 100 µM each time. The TGI in test [7] is 35.1 µM; in test [8] it was more than 100 µM.
Turning to `COc1cc(CN2CCCCC2)cc2cc(C(=O)O)c(=O)oc12`, the TGI in test [1], in test [2], in test [3], in test [4], in test [5] and in test [6] was more than 100 µM throughout. In addition, the TGI in test [7] and in test [8] was more than 100 µM in each case.
Turning to `Clc1ccc(OCc2nnc(CCCCCCCCc3nnc(COc4ccc(Cl)cc4)n3Nc3ccccc3)n2Nc2ccccc2)cc1`, the TGI is more than 100 µM in test [1]; 5.13 µM in test [2]; more than 100 µM in test [3]; more than 93 µM in test [4]; more than 100 µM in test [5]; more than 100 µM in test [6]. For the same compound, the figures for the TGI in test [7] and in test [8] were more than 100 µM and more than 68.7 µM, respectively.
As to `Cc1cn(C(C)OCCN2C(=O)c3ccccc3C2=O)c(=O)[nH]c1=O` (centres undefined), the TGI in test [1], in test [2], in test [3], in test [4], in test [5] and in test [6] was more than 100 µM throughout. For the same compound, the concentration for total growth inhibition (TGI) in test [7] and in test [8] was more than 100 µM in each case.
On to `C=C1CC(C)(c2ccc(Nc3nc4ccccc4c4occc34)cc2)OC1=O` (centres undefined), for which the TGI was 7.73 µM in test [1]; 4.47 µM in test [2]; 20 µM in test [3]; 17.8 µM in test [4]; 0.164 µM in test [5]; 11.4 µM in test [6]. For the same compound, the TGI came out at 6.56 µM in test [7] and 5.63 µM in test [8].
As to `COc1cc2c(/C=C3/C(=O)Nc4ccccc43)c(Cl)[nH]c2cc1C`, the TGI is 21.1 µM in test [1]; 24.9 µM in test [2]; 16.3 µM in test [3]; 17.4 µM in test [4]; more than 45.8 µM in test [5]; 12.6 µM in test [6]. Further, the results for the TGI in test [7] and in test [8] were 17.9 µM and 0.982 µM, respectively.
For the compound `Cc1nn(-c2cc(Cl)ccc2[N+](=O)[O-])c(C)c1Cl`, the TGI in test [1], in test [2], in test [3], in test [4], in test [5] and in test [6] was more than 100 µM in each case. In addition, the TGI in test [7] and in test [8] was more than 100 µM each time.
On to `NC(=O)c1cc2ccccc2o/c1=N/O`, for which the TGI in test [2], in test [3], in test [4], in test [5], in test [6] and in test [7] was more than 100 µM in each case. For the same compound, the TGI in test [8] is more than 100 µM.
Take `CC1(C)CNC(=O)C2(C=NC(C)(C)CNC(=O)C3(C=N1)CCCO3)CCCO2` (centres undefined): the TGI in test [1], in test [2], in test [3], in test [4], in test [5] and in test [6] was more than 10 µM throughout. The TGI in test [7] and in test [8] was more than 10 µM each time.
As for `CNC(=O)N(CCC#N)[C@H]1CCCC[C@@H]1N(C(=O)NC)c1ccccc1`, the TGI in test [1], in test [2], in test [3], in test [4], in test [5] and in test [6] was more than 100 µM each time. In addition, the TGI in test [7] and in test [8] was more than 100 µM each time.
In the case of `O=C1C=CC(=O)c2c(O)c(NCCc3ccc(O)cc3)c(Cl)c(O)c21`, the TGI in test [1], in test [2], in test [3], in test [4], in test [5] and in test [6] was more than 10 µM throughout. The TGI in test [7] and in test [8] was more than 10 µM throughout.
With `Brc1ccc2c(-c3csc(-c4c[nH]c5ccc(Br)cc45)n3)c[nH]c2c1`, the TGI in test [1] was 23.9 µM; in test [2], more than 21.4 µM; in test [3], 19.8 µM; in test [4], 11.1 µM; in test [5] it was 23.1 µM; in test [6] it was 24.1 µM. The TGI in test [7] came to 24.9 µM; in test [8], 5.51 µM.
In the case of `O=C1C=C(c2ccccc2)O/C1=C/C(=O)c1ccc(Cl)cc1`, the TGI in test [1] came out at 32.9 µM; in test [2] it was 25.9 µM; in test [3], 27.3 µM; in test [4], 30.5 µM; in test [5], 35.6 µM; in test [6], 74.8 µM. The TGI worked out at 23.6 µM in test [7] and 32.2 µM in test [8].
As for `COC(=O)CC(NC(=O)OCc1ccccc1)C(=O)NC(CC(=O)OC)C(=O)NC(CC(=O)OC)C(=O)NC(CC(=O)OC)C(=O)NC(CC(=O)OC)C(=O)NC(CC(=O)OC)C(=O)NN` (centres undefined) (Cbz-D(OMe)D(OMe)D(OMe)D(OMe)D(OMe)D(OMe)-NHNH2; configuration not given here), the TGI in test [1], in test [2], in test [3], in test [4], in test [5] and in test [6] was more than 100 µM throughout. Further, the TGI in test [7] and in test [8] was more than 100 µM in each case.
Turning to `CCNC(=O)C1CCCN1C(=O)C(CCCN=C(N)N)NC(=O)C(CC(C)C)NC(=O)C(Cc1c[nH]c2ccccc12)NC(=O)C(Cc1ccc(O)cc1)NC(=O)C(CO)NC(=O)C(Cc1c[nH]c2ccccc12)NC(=O)C(Cc1cnc[nH]1)NC(=O)C1CCC(=O)N1` (centres undefined), the TGI in test [1], in test [2], in test [3], in test [4], in test [5] and in test [6] was more than 100 µM each time. In addition, the TGI in test [7] and in test [8] was more than 100 µM throughout.
In the case of `COc1ccc2c(c1)CC1=C(O2)c2ccc(OC)cc2OC1`, the TGI is 90.1 µM in test [1]; more than 100 µM in test [2]; 57 µM in test [3]; 36.5 µM in test [4]; 37.8 µM in test [5]; 78.2 µM in test [6]. The values for the TGI in test [7] and in test [8] were 66.3 µM and more than 100 µM, respectively.
For the compound `Cc1cn([C@@H]2C[C@H]2CO)c(=O)[nH]c1=O`, the TGI in test [1], in test [2], in test [3], in test [4], in test [5] and in test [6] was more than 100 µM in each case. Moreover, the TGI in test [7] and in test [8] was more than 100 µM in each case.
Take `O=C(CSc1n[nH]c(=O)[nH]c1=O)NNC(=O)c1cccc2nc3ccccc3nc12`: the TGI in test [1], in test [2], in test [3], in test [4], in test [5] and in test [6] was more than 100 µM each time. Also, the TGI in test [8] is more than 100 µM.
In the case of `CC1(CNCc2ccccc2)CC(CCc2ccccc2)N(C(=O)c2ccc([N+](=O)[O-])cc2)C1Cc1ccc(O)cc1` (centres undefined), the TGI in test [1] was 28.2 µM; in test [2], more than 100 µM; in test [3] it was 26.3 µM; in test [4], 24.8 µM; in test [5], 27 µM; in test [6] it was 32 µM. For the same compound, in test [8], the TGI came to 27.1 µM.

The TGI is the concentration giving total growth inhibition. Usually GI50 stands for the concentration that inhibits growth by half.
